From US10201617B2, “3-substituted piperidine-2, 6-diones and non-covalent complexes with albumin” (Zhuhai Beihai Biotech Co., Ltd., priority 2014, dated 2019)

How the values were obtained:
[1] = Persistence in plasma: incubation with human plasma at 37° C., LC-MS/MS; type: in vitro ADME; conditions: for Peak Area Ratio (Analyte/incubation sample): Human Plasma
Experimental: Test compounds and control (procaine) were incubated at a concentration of 10 μM with human plasma. […]
After quenching by acetonitrile, the plates were capped, vortexed, and centrifuged at 3000 rpm for 10 minutes. The supernatant was injected into LC-MS/MS.

[2] = Persistence control: incubation in PBS buffer (pH 7.4) at 37° C., LC-MS/MS; type: physicochemical; conditions: for Peak Area Ratio (Analyte/incubation sample): PBS Buffer, 24 hr; for % Remaining after 24-hr Incubation at 37° C.: PBS buffer
[3] = regardless of pH; cited from earlier work
CYP1A2 = target: T1, CYP1A2 (Homo sapiens, UniProt P05177); conditions: cited from earlier work
T1 sequence (P05177 1-516): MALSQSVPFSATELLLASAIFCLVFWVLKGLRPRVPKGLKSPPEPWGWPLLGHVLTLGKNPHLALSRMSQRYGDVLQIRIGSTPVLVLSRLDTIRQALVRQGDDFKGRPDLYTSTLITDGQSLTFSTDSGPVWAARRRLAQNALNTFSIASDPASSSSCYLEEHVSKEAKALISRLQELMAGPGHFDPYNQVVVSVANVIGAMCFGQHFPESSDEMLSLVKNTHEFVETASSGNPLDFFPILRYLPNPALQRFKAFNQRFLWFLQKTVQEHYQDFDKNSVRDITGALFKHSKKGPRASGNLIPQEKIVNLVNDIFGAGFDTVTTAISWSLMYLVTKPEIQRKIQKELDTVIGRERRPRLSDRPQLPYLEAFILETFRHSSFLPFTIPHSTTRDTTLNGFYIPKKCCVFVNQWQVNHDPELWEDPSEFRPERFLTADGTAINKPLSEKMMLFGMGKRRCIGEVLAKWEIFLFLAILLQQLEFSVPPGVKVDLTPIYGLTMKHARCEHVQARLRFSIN

CYP3A = conditions: cited from earlier work

Q: With `CCN(CC)CCOC(=O)c1ccc(N)cc1` [Procaine, procaine] as the molecule, how does the “Peak Area Ratio (Analyte/incubation sample)” value ([1]; 0 hr, Replicate 1) read?
A: 0.311

Q: And the “Peak Area Ratio (Analyte/incubation sample)” value ([1]; 0 hr, Replicate 2)?
A: 0.451

Q: And the “Peak Area Ratio (Analyte/incubation sample)” value ([1]; 24 hr, Replicate 1)?
A: 0.0

Q: And the “Peak Area Ratio (Analyte/incubation sample)” value ([1]; 24 hr, Replicate 2)?
A: 0.0

Q: What about the “% Remaining after 24-hr Incubation at 37° C.” value (“% Remaining” below) ([1]; human, plasma, 24 h, 10 μM) of the same molecule?
A: 0.0%

Q: And the “Peak Area Ratio (Analyte/incubation sample)” value ([2]; Replicate 1)?
A: 0.413

Q: And the “Peak Area Ratio (Analyte/incubation sample)” value ([2]; Replicate 2)?
A: 0.419

Q: What about the “% Remaining” value ([2]; Average) of the same molecule?
A: 109%

Q: And the “% Remaining” value ([2]; Replicate 1)?
A: 108.40%

Q: And the “% Remaining” value ([2]; Replicate 2)?
A: 109.97%

Q: With `Nc1cccc2c1C(=O)N(C1CCC(=O)NC1=O)C2=O` (stereo not shown) [pomalidomide] as the molecule, how does the solubility [3] read?
A: about 0.01 mg/mL

Q: What about the “substrate of CYP1A2 liver enzyme” value (CYP1A2) of the same molecule?
A: substrate

Q: And the “substrate of CYP3A liver enzyme” value (CYP3A)?
A: substrate
